Measured values as given in patent publication US20100267784A1, “NOVEL 4,5-DIHYDROISOXAZOLES WITH ESTROGENIC ACTIVITY” (priority 2007, published 2010).
“And” between values parts separate entries of the source, which are not always exact repeats. Identical values can stand only once.

Experiments:
ERα = target: T1, ERα (Homo sapiens, UniProt P03372); experiment: ERα reporter (luciferase) transactivation assay in transfected HEK293 cells; format: cell-based; design: expressed in transfected cells; host or cells: HEK293; conditions: sample concentration 10 μM, 24 hours, mean of at least three independent transfections
T1 sequence (P03372 1-595): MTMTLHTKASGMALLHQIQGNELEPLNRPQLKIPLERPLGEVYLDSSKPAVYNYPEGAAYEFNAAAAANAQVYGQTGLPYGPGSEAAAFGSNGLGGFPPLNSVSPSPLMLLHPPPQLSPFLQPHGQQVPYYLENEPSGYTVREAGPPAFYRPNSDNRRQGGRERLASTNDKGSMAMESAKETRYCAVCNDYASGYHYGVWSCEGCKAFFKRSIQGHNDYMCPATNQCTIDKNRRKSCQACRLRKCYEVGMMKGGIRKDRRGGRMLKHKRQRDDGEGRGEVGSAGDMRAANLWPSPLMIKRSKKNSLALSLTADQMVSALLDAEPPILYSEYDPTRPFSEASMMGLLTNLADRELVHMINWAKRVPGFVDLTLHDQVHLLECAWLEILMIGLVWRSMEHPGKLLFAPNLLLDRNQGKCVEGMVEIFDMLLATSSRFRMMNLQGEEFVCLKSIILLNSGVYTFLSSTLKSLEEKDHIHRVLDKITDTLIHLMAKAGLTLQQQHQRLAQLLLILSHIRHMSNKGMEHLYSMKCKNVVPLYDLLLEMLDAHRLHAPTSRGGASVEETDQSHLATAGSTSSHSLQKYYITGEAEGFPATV
Method: (§1) Determination of the Estrogen Activity of the Compounds: Cell Culture, Transfection and Reporter Assays
(§2) All other reagents were of reagent grade from Sigma or Fluka. One day before transfection, HEK293 cells were seeded in 48-well plates (70×10^3 cells per well) in phenol-free Dulbecco's modified Eagle medium supplemented with 5% delipidated fetal bovine serum (Sigma) and antibiotics. After a medium change, the cells were transfected for 4 hours with 5 ng ERα or ERβ expression vector, 75 ng reporter plasmid pERE2TATA-LUC and 20 ng control plasmid pCMVβ by the calcium phosphate method. After transfection, the cells received fresh medium containing either vehicle (0.1% v/v) or test compound (10 μM). After 24 hours, the cells were washed, lysed and luciferase and β-galactosidase activities were determined from 20 μl of lysates with the Victor^2TM reader (PerkinElmer Wallac, Turku, Finland). […] The data are means ±SEM of at least three independent transfections.

ERβ = ERβ (Homo sapiens, UniProt Q92731); experiment: ERβ reporter (luciferase) transactivation assay in transfected HEK293 cells; format: cell-based; design: expressed in transfected cells; host or cells: HEK293; conditions: for ERβ receptor activation relative to 10 nM E2 corresponding 100: sample concentration 10 μM, 24 hours, mean of at least three independent transfections; for activation at 10 µM: HEK293, 24 h, read-out: ERβ receptor activation relative to 10 nM E2 corresponding 100, sample concentration 10 μM, mean of at least three independent transfections
Chain of ERβ (Q92731 whole entry): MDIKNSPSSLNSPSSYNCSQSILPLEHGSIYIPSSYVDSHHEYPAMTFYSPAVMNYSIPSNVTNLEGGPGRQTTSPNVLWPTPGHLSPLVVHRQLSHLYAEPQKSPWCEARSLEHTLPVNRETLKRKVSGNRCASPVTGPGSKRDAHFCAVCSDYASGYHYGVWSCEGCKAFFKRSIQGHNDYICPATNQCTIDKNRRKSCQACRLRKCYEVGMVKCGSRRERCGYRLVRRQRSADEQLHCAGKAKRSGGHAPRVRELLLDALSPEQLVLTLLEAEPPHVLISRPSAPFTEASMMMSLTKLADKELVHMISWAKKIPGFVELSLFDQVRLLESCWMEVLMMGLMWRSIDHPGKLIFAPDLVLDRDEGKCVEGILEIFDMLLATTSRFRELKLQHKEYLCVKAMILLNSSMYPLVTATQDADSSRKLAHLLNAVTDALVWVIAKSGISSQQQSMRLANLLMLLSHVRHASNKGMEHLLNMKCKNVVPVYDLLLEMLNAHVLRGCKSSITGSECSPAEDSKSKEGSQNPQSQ
Method: as §1, §2

| SMILES | ERα receptor activation relative to 10 nM E2 corresponding 100 (ERα) | ERβ receptor activation relative to 10 nM E2 corresponding 100 (ERβ) | activation at 10 µM (ERβ) |
| --- | --- | --- | --- |
| Oc1ccc(CCCC2=NOC(Cc3ccc(O)cc3)C2)cc1 (single isomer, unassigned) [101b, 5-(4-Hydroxy-benzyl)-3-[3-(4-hydroxy-phenyl)-propyl]-4,5-dihydro-isoxazole] | 13.6% | 10.6% | – |
| CC1(c2ccccc2)CC(CCc2ccccc2)=NO1 (single isomer, unassigned) [71a, 5-Methyl-3-phenethyl-5-phenyl-4,5-dihydroisoxazole] | 8.1% | −20.0% | – |
| Oc1ccc(CCC2=NOC(Cc3ccc(F)cc3)C2)cc1 (single isomer, unassigned) [98a, 5-(4-Fluoro-benzyl)-3-[2-(4-hydroxy-phenyl)-ethyl]-4,5-dihydro-isoxazole] | 77.8% | 28.4% | – |
| COc1ccc(CC2CC(CCc3ccccc3)=NO2)cc1 (single isomer, unassigned) [65a, 5-(4-Methoxybenzyl)-3-phenethyl-4,5-dihydroisoxazole] | 0.8% | 10.6% | – |
| Oc1cccc(CCC2=NOC(Cc3ccccc3)C2)c1 (single isomer, unassigned) [92b, 5-Benzyl-3-[2-(3-hydroxy-phenyl)-ethyl]-4,5-dihydro-isoxazole] | 15.7% | −2.5% | – |
| Fc1ccc(CC2CC(CCc3ccccc3)=NO2)cc1 (single isomer, unassigned) [66b, 5-(4-fluorobenzyl)-3-phenethyl-4,5-dihydroisoxazole] | 28.9% | 7.4% | – |
| CC1(c2ccccc2)CC(CCc2ccccc2)=NO1 (single isomer, unassigned) [71b, 5-Methyl-3-phenethyl-5-phenyl-4,5-dihydroisoxazole] | 10.9% | −7.3% | – |
| Oc1cccc(CCC2=NOC(CCc3ccccc3)C2)c1 (single isomer, unassigned) [105a, 3-[2-(3-Hydroxy-phenyl)-ethyl]-5-phenethyl-4,5-dihydro-isoxazole] | 8.3% | – | 2.6% |
| Fc1cccc(CC2=NOC(CCc3ccccc3)C2)c1 (stereo not shown) [69ab, 3-(3-Fluorobenzyl)-5-phenethyl-4,5-dihydroisoxazole] | 19.5% and 19.7% | – | 10.6% |
| Oc1ccc(CC2CC(CCc3ccccc3)=NO2)cc1 (single isomer, unassigned) [94a, 5-(4-Hydroxy-benzyl)-3-phenethyl-4,5-dihydro-isoxazole] | 34.2% | 9.1% | – |
| Oc1ccccc1CCC1=NOC(CCc2ccccc2)C1 (single isomer, unassigned) [104b, 3[2-(2-Hydroxy-phenyl)-ethyl]-5-phenethyl-4,5-dihydro-isoxazole] | 21.8% | 2.6% | – |
| Oc1cccc(C2CC(Cc3ccccc3)=NO2)c1 (stereo not shown) [82ab, 3-Benzyl-5-(3-hydroxy-phenyl)-4,5-dihydro-isoxazole] | 21.6% | – | 6.6% |
| COc1ccc(CC2CC(CCc3ccccc3)=NO2)cc1 (single isomer, unassigned) [65b, 5-(4-Methoxybenzyl)-3-phenethyl-4,5-dihydroisoxazole] | 16.1% | – | 13.2% |
| Oc1ccccc1CCC1=NOC(CCc2ccccc2)C1 (single isomer, unassigned) [104a, 3[2-(2-Hydroxy-phenyl)-ethyl]-5-phenethyl-4,5-dihydro-isoxazole] | 4.5% | – | 4.2% |
| Fc1ccc(CC2CC(CCc3ccccc3)=NO2)cc1 (single isomer, unassigned) [66a, 5-(4-fluorobenzyl)-3-phenethyl-4,5-dihydroisoxazole] | 99.2% | – | 11.2% |
| Oc1ccccc1CCC1=NOC(Cc2ccc(F)cc2)C1 (single isomer, unassigned) [97b, 5-(4-Fluoro-benzyl)-3-[2-(2-hydroxy-phenyl)-ethyl]-4,5-dihydro-isoxazole] | 11.1% | −2.4% | – |

More lines, now with the values ahead:

| ERα receptor activation relative to 10 nM E2 corresponding 100 (ERα) | ERβ receptor activation relative to 10 nM E2 corresponding 100 (ERβ) | activation at 10 µM (ERβ) | SMILES |
| --- | --- | --- | --- |
| 3.4% | 0.2% | – | c1ccc(CCC2=NOC(CCc3ccccc3)C2)cc1 (single isomer, unassigned) [116a, 3,5-Di-phenethyl-4,5-dihydroisoxazole] |
| 55.2% | 17.2% | – | COc1ccc(C2=NOC(Cc3ccccc3)C2)cc1 (single isomer, unassigned) [12a, 5-Benzyl-3-(4-methoxyphenyl)-4,5-dihydroisoxazole] |
| 52.0% | – | 28.5% | Oc1ccc(C2=NOC(Cc3ccccc3)C2)cc1 (single isomer, unassigned) [80a, 5-Benzyl-3-(4-hydroxy-phenyl)-4,5-dihydro-isoxazole] |
| 0.4% | 6.4% | – | COc1ccccc1CC1CC(CCc2ccccc2)=NO1 (single isomer, unassigned) [64b, 5-(2-Methoxybenzyl)-3-phenethyl-4,5-dihydroisoxazole] |
| 9.7% | 7.9% | – | COc1ccc(C2=NOC(Cc3ccccc3)C2)cc1 (single isomer, unassigned) [12b, 5-Benzyl-3-(4-methoxyphenyl)-4,5-dihydroisoxazole] |
| 18.9% | – | 9.5% | COc1ccccc1CC1CC(CCc2ccccc2)=NO1 (single isomer, unassigned) [64a, 5-(2-Methoxybenzyl)-3-phenethyl-4,5-dihydroisoxazole] |
| 17.2% | 6.5% | – | c1ccc(CCC2=NOC(Cc3cccc4ccccc34)C2)cc1 (single isomer, unassigned) [67b, 5-naphthalen-1-yl-methyl-3-phenethyl-4,5-dihydroisoxazole] |
| 58.6% | 17.7% | – | Oc1ccc(C2=NOC(Cc3ccccc3)C2)cc1 (single isomer, unassigned) [80b, 5-Benzyl-3-(4-hydroxy-phenyl)-4,5-dihydro-isoxazole] |
| 47.2% | 12.8% | – | c1ccc(CC2CC(c3ccccc3)=NO2)cc1 (single isomer, unassigned) [107b, 5-Benzyl-3-phenyl-4,5-dihydroisoxazole] |
| 13.0% | 3.8% | – | c1ccc(CCC2=NOC(Cc3ccc4ccccc4c3)C2)cc1 (single isomer, unassigned) [68b, 5-naphthalen-2-yl-methyl-3-phenethyl-4,5-dihydroisoxazole] |
